This note sets out measurements from US7759349B2, “Control of parasites in animals by the use of imidazo[1,2-b]pyridazine derivatives” (Schering-Plough Animal Health Corporation, priority 2003, dated 2010).

In one test the test system is Haemonchus contortus. Description: Haemonchus contortus larvacidal assay: NemaTOX H. contortus dose response (larval development, eggs to L3). Format: cell-based. The settings on record: Haemonchus contortus, 144 h; Table 1; concentration required to inhibit development in 99% of the nematode larvae; eggs on agar to L3 stage (6 days); two-fold dilutions, 0.024 to 50 μg/ml; read-out: LD99. Here is the method:
Haemonchus Contortus Larvacidal Assay: NemaTOX H.contortus Dose Response (00/0510)
Effect on larval development is determined in the assay described by Gill et al. (International Journal of Parasitology, 1995, 25, 463-470). Briefly, in this assay nematode eggs were applied to the surface of an agar matrix containing the test compound and then allowed to develop through to the L3, infective stage (6 days)
The wells for each dilution of every compound (from highest to lowest concentration) were inspected to determine the well number corresponding to the lowest concentration at which development was inhibited in 99% of the nematode larvae present. As the well numbers correspond to a two-fold serial dilution of each compound, a titre (dilution factor) is generated as 2^n-1, where n is the well number. By dividing the highest concentration tested by the titre an LD99 value can be obtained, representing the concentration required to inhibit development in 99% of the nematode larvae present.
The compounds supplied as solid and viscous liquids were dissolved in DMSO. Twelve serial 1/2 dilutions in DMSO solution were prepared from the stock solution, each of which was then diluted 1/5 with water. Aliquots (10 μl) of each dilution were transferred to the bioassay plates to give a final concentration range of 0.024 to 50 μg/ml.
In Tables 1, 2 and 3 the Haemonchus contortus LD99 values for compounds in accordance with the present invention are listed, measured in micrograms/mL.
`c1cc2c(cc1-c1cn3nc(OCC4CC4)ccc3n1)OCO2` [Compound 43, 2-(3,4-Methylendioxyphenyl)-6-cyclopropylmethoxyimidazo[1,2-b]pyridazine]: the IC99 is 0.117 µg/mL. On the same count and under the same terms, then `Cc1c(-c2cccs2)nc2ccc(OCC3CC3)nn12` [Compound 44], with 0.375 µg/mL.

The same test, now with this note: Table 1; concentration required to inhibit development in 99% of the nematode larvae; eggs on agar to L3 stage (6 days); two-fold dilutions, 0.024 to 50 μg/ml.
In the case of `COc1ccc2nc(-c3ccc(C)cc3)cn2n1` [Compound 1], the LD99 is 3.75 micrograms/mL. Compound `CCOc1ccc2nc(-c3ccc(C)cc3)cn2n1` [Compound 2] registered an LD99 of 0.875 micrograms/mL. For the compound `COc1c(-c2ccccc2)nc2ccc(SC)nn12` [Compound 3], the LD99 came out at 3 micrograms/mL. Same read-out and setting: then `CSc1ccc2nc(-c3ccccc3)cn2n1` [Compound 4], with 2.75 micrograms/mL.

`c1ccc(Sc2ccc3nc(-c4ccccc4)cn3n2)cc1` [Compound 5] gave an LD99 of 1.625 micrograms/mL. For the compound `CSc1ccc2nc(-c3ccc4c(c3)OCO4)cn2n1` [Compound 6], the LD99 is recorded as 3.25 micrograms/mL. On to `CCCSc1ccc2nc(-c3ccc(C)cc3)cn2n1` [Compound 7], for which the LD99 is on record as 0.938 micrograms/mL.

The compound `CCCSc1ccc2nc(-c3ccc4c(c3)OCO4)cn2n1` [Compound 8] yielded an LD99 of 0.813 micrograms/mL. On the same count and under the same terms, then `COc1c(-c2ccc3cc(C)ccc3c2)nc2ccc(SC)nn12` [Compound 9], with above 15.0 micrograms/mL; and `c1ccc(COc2ccc3nc(-c4ccccc4)cn3n2)cc1` [Compound 10], with 5.5 micrograms/mL; and `CCCOc1ccc2nc(-c3ccc(Cl)cc3)cn2n1` [Compound 11], with 3.75 micrograms/mL. Same read-out and setting: the result for `CCSc1ccc2nc(-c3ccc(C)cc3)cn2n1` [Compound 12] reads 1.25 micrograms/mL; that for `CCCSc1ccc2nc(-c3cccc(OC)c3)cn2n1` [Compound 13], 0.63 micrograms/mL; that for `CCCSc1ccc2nc(-c3cc(OC)c(OC)c(OC)c3)cn2n1` [Compound 14], above 15.0 micrograms/mL. The compound `COc1cccc(-c2nc3ccc(SC)nn3c2OC)c1` [Compound 15] displayed an LD99 of 2.75 micrograms/mL. Still for that read-out and setting: then `CCCOc1ccc2nc(-c3ccc4c(c3)OCO4)cn2n1` [Compound 16], with 0.23 micrograms/mL; and `COc1ccc(-c2nc3ccc(OCc4ccccc4)nn3c2OC)cc1` [Compound 17], with above 15.0 micrograms/mL. Still for that read-out and setting: then `COc1ccc(-c2cn3nc(OC)ccc3n2)cc1` [Compound 18], with 3 micrograms/mL; and `COc1cccc(Sc2ccc3nc(-c4ccc5c(c4)OCO5)cn3n2)c1` [Compound 19], with above 15.0 micrograms/mL; and `CSCc1c(-c2ccc(Cl)cc2)nc2ccc(SC)nn12` [Compound 20], with above 15.0 micrograms/mL. `COc1c(-c2ccccc2)nc2ccc(Sc3ccccc3)nn12` [Compound 21] had an LD99 above 15.0 micrograms/mL.

With `CCCSc1ccc2nc(-c3ccccc3)c(OC)n2n1` [Compound 22], the LD99 is given as above 15.0 micrograms/mL. Regarding `COc1c(-c2ccccc2)nc2ccc(OCc3ccccc3)nn12` [Compound 23], the LD99 is above 15.0 micrograms/mL.

`CCSc1ccc2nc(-c3ccccc3)c(OC)n2n1` [Compound 24] had an LD99 of 7.5 micrograms/mL. For the compound `COCCOc1ccc2nc(-c3ccc4c(c3)OCO4)cn2n1` [Compound 25], the LD99 was 1.25 micrograms/mL. `CCCOc1ccc2nc(-c3ccc(OC)c(OC)c3)cn2n1` [Compound 26] registered an LD99 of 1.3 micrograms/mL. The compound `CCCOc1ccc2nc(-c3ccc(OCC)cc3)cn2n1` [Compound 27] returned an LD99 of 0.1 micrograms/mL. The same measure, in the same setting: the result for `CCCOc1ccc2nc(-c3cccc(OC)c3)cn2n1` [Compound 28] reads 0.23 micrograms/mL. The same measure, in the same setting: the result for `CCCSc1ccc2nc(-c3ccc(OC)c(OC)c3)cn2n1` [Compound 29] reads 1.9 micrograms/mL; that for `CCCSc1ccc2nc(-c3ccc(OCC)cc3)cn2n1` [Compound 30], 0.38 micrograms/mL. Consider `CCOc1ccc(-c2cn3nc(OC4CCCC4)ccc3n2)cc1` [Compound 31], for which the LD99 came out at 0.875 micrograms/mL. Same read-out and setting: the result for `CCCOc1nn2cc(-c3ccc(OCC)cc3)nc2cc1C` [Compound 32] reads 0.188 micrograms/mL; that for `CCCOc1ccc2nc(-c3ccc(Cl)s3)cn2n1` [Compound 34], 0.188 micrograms/mL; that for `CCOc1ccc(-c2cn3nc(-c4ccccc4)ccc3n2)cc1` [Compound 35], 10 micrograms/mL.

Regarding `COc1ccc(-c2nc3ccc(-c4ccccc4)nn3c2C)cc1` [Compound 36], the LD99 was determined as 0.8123 micrograms/mL. In turn, `CCCOc1ccc2nc(-c3ccc(OC)cc3)c(C)n2n1` [Compound 37] yielded an LD99 of 0.344 micrograms/mL. Same read-out and setting: then `CCCOc1ccc2nc(-c3ccc(OC)c(Br)c3)c(C)n2n1` [Compound 38], with 3.75 micrograms/mL.

In turn, `CCOc1ccc(-c2nc3ccc(OCC4CC4)nn3c2Br)cc1` [Compound 39] displayed an LD99 of 2.75 micrograms/mL. On the same count and under the same terms, then `CCCOc1ccc2nc(-c3ccc(OCC)cc3)c(Br)n2n1` [Compound 40], with 0.344 micrograms/mL; and `CCOc1ccc(-c2cn3nc(SCc4ccc(OC)cc4)ccc3n2)cc1` [Compound 41], with 11 micrograms/mL. The same measure, in the same setting: then `CCOc1ccc(-c2cn3nc(SCc4ccc(Cl)cc4)ccc3n2)cc1` [Compound 42], with 3 micrograms/mL. On the same count and under the same terms, the result for `Cc1c(-c2cccs2)nc2ccc(Br)nn12` [Compound 45] reads 6 micrograms/mL. `CCCCCCSc1ccc2nc(-c3cccs3)c(C)n2n1` [Compound 46] showed an LD99 of 6.5 micrograms/mL. `COc1ccc(CSc2ccc3nc(-c4cccs4)c(C)n3n2)cc1` [Compound 47] gave an LD99 of 7.5 micrograms/mL. Still for that read-out and setting: then `CCCSc1ccc2nc(-c3ccc(OCC)cc3)c(Cl)n2n1` [Compound 48], with 6 micrograms/mL; and `CCOc1ccc(-c2cn3nc(SCC(C)C)ccc3n2)cc1` [Compound 49], with 1.75 micrograms/mL; and `CCOc1ccc(-c2cn3nc(SC(C)C)ccc3n2)cc1` [Compound 50], with 0.875 micrograms/mL. Compound `CCOc1ccc(-c2cn3nc(OC(C)C)ccc3n2)cc1` [Compound 51] registered an LD99 of 1.875 micrograms/mL.

`COc1ccc(-c2cn3nc(SC(C)C)ccc3n2)cc1` [Compound 52]: the LD99 came out at 0.938 micrograms/mL. The same measure, in the same setting: the result for `CCCCOc1ccc2nc(-c3ccc(OCCC)cc3)cn2n1` [Compound 53] reads 0.344 micrograms/mL; that for `CCCOc1ccc2nc(-c3ccc(F)cc3F)cn2n1` [Compound 54], 0.219 micrograms/mL; that for `CCCOc1ccc2nc(-c3ccc(F)cc3)cn2n1` [Compound 55], 0.813 micrograms/mL. On the same count and under the same terms, the result for `CCc1ccc(-c2cn3nc(OCC4CC4)ccc3n2)cc1` [Compound 56] reads 0.0781 micrograms/mL; that for `COc1ccc(-c2cn3nc(SCC(C)C)ccc3n2)cc1OC` [Compound 57], 1.375 micrograms/mL; that for `COc1ccc(-c2cn3nc(OC(C)C)ccc3n2)cc1OC` [Compound 58], 15 micrograms/mL.

The compound `CCCCOc1ccc2nc(-c3ccc(OCCC)cc3)c(CN(C)C)n2n1` [Compound 59] came in with an LD99 of 14 micrograms/mL.
